# Experimental data as given in US20060099712A1, “Correlation of anti-cancer activity of dyes with redox potentials” (Eastman Kodak Company, priority 2004, published 2006).
# Where two headings read alike, the source gives them in different places.
# Assays:
# [1] = Octanol/water partition (log P); assay type: physicochemical; settings: shaking with water and octanol
# Excerpt: Octanol/water partition coefficients (log P) are usually used as a model of drug transport between water and the biophase, as disclosed in A. Leo, C. Hansch, Substituent Constants—for Correlation Analysis in Chemistry. and' Biology, Wiley, New York, 1979 and A. Leo, C. Hansch, D. Elkins, Chem. Rev., 6, 525 (1971), both incorporated herein by reference. Often partition coefficients can be measured simply by shaking the compound with a mixture of water and octanol and determining the concentration of the solute in either solvent. P is equal to the concentration of the solute in octanol divided by its concentration in water. In general, it is possible to measure log P values ranging from −4.0 to 6.0. The situation is also more complicated when the species is charged because of the effects of ion pairing.
# [2] = Table XXII; chain substituent steric parameter; cited from earlier work
# [3] = Dye solubility (water, 5% dextrose/water); assay type: physicochemical; settings: among compounds with enhanced activity
# Excerpt: Dye solubility is also a factor, since compounds having low water solubility are difficult or impossible to include in in vivo testing.
# S13 is one of the simplest cyanine dye structures possible (in this nomenclature the S refers to the sulfur, the 1 indicates one carbon on the nitrogen and 3 indicates a 3 methine chain). […] A synthetic challenge will be to enhance the activity/selectivity of this dye and retain its good water solubility. [drawing 23]
# [4] = Table XXII; chain substituent steric parameter; cited from earlier work; remark: listed apart in the source
# [5] = Table XXII; chain substituent hydrophobicity parameter; cited from earlier work
# [6] = test system: CV-1 Normal Monkey Kidney Epithelial; test: Clonogenic dye screening assay, CV-1 cells (IC50); assay type: cell-based, African green monkey; settings: Primates
# In short: (§1)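 Cells seeded 16-30 h ahead (2000 CX-1 or 1000 CV-1 per well), exposed to serially diluted dyes for 3 h at 37 °C, rinsed three times, then grown into colonies. Eight-point curves spanned 0.32-0.0015 μg/mL (CX-1) and 3.2-0.025 μg/mL (CV-1). IC50 is the concentration killing 50% of cells.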
# [7] = test system: CX-1 Human Colon Carcinoma; test: Clonogenic dye screening assay, CX-1 cells (IC50); assay type: cell-based; settings: for IC50: Homo sapiens; for CV/CX (selectivity, kill ratio): ratio of IC50 in normal CV-1 line to IC50 in carcinoma CX-1 line
# In short: as §1
# [8] = Table XXII; chain substituent electronic parameter; cited from earlier work
# [9] = Clonogenic dye screening assay, CX-1 cells (IC50); assay type: cell-based, human; settings: Homo sapiens, CX-1, Table XII column 5; unit from method; read-out: CV (Table XII)
# In short: as §1
# In vivo tests (toxicity) = test: In vivo tests (toxicity)
# Excerpt: Benzothiazole is by far the next best.
# [10] = CV-1, 3 hrs treatment, colonies after 7-10 days, unit from method, read-out: CV (IC50 in the CV-1 cell line)
# [11] = CX-1, 3 hrs treatment, colonies after 7-10 days, unit from method, read-out: CX (IC50 in the CX-1 cell line)
compound,measurement,setting,value
"CCN1C(=CC=Cc2sc3ccccc3[n+]2CC)Sc2ccccc21.[I-] [3,3′-diethylthiacarbocyanine iodide]",octanol/water partition,[1],partition completely into the octanol phase
CN1/C(=C/C=C/c2sc3ccccc3[n+]2C)Sc2ccccc21 [Dye D-100],B1,[2],1.00
same,L,[2],2.06
same,solubility,[3],most desirably soluble
same,MR,[4],0.103
same,π,[5],0.00
same,IC50,[6]; [10],0.5 µg/mL
same,IC50,"[6]; CV-1, Table XX, thiacarbocyanine nitrogen substituents, CV-1 cells, read-out: CV",0.5 µg/mL
same,IC50,[7]; [11],0.005 µg/mL
same,IC50,"[7]; CX-1, Table XX, thiacarbocyanine nitrogen substituents, CX-1 cells, read-out: CX",< 0.005 µg/mL
same,Selectivity,"[7]; Table 1, cell line not given, values equal CV/CX of Table II",100
same,CV/CX,"[7]; Table XX, ratio given a value of 1 where dye inactive",100.0
same,"CV/CX (selectivity, kill ratio)",[7],100
same,F,[8],0.00
same,R,[8],0.00
same,σm,[8],0.00
same,σp,[8],0.00
CCN1/C(=C/C=C/c2sc3cc4c(cc3[n+]2CC)OCO4)Oc2ccccc21 [Dye D-163],IC50,[6]; [10],0.3 µg/mL
same,IC50,[7]; [11],0.3 µg/mL
same,"CV/CX (selectivity, kill ratio)",[7],>60.0
same,IC50,[9],< 0.005 µg/mL
Indole,"CV/CX (selectivity, kill ratio)",[7],highest selectivity
same,toxicity in vivo,In vivo tests (toxicity),high toxicity
